Biological target: T1, Insulin Receptor (Homo sapiens, UniProt P06213)
T1 construct: expressed in transfected cells; host or cells: H25 cells (NIH3T3, ATCC No. 1658)
Test: Insulin receptor phosphorylation assay in H25 cells (ELISA)
Format: cell-based
Conditions: insulin stimulation
Procedure: The following materials and reagents were used to measure phophotyrosine levels on the insulin receptor (indicating insulin receptor tyrosine kinase activity):
1. The preferred cell line was an NIH3T3 cell line (ATCC No. 1658) which overexpresses Insulin Receptor (H25 cells);
2. Resuspend the cells in fresh DMEM+10% FBS+2mM L-Glutamine, and transfer to 96-well tissue culture plate (Corning, 25806-96) at 20,000 cells/well (100 μL/well). The cells are then incubated for 1 day. Following such incubation, 0.01% serum medium (90/μL) replaces the old media and the cells incubate in 5% CO2 and 37° C. overnight.
1. Coat the ELISA plate (Corning 25805-96) with Anti-IR Antibody at 0.5 μg/well in 100 μL PBS at least 2 hours.
C. Assay Procedures 1. The drugs are tested in serum-free condition. 2. Dilute drug stock (in 100% DMSO) 1:10 with DMEM in 96-well poly-propylene plate, and transfer 10 μL/well of this solution to the cells to achieve final drug dilution 1:100, and final DMSO concentration of 1.0%. Incubate the cells in 5% CO2 at 37° C. for 2 hours.
4. After drug incubation for two hours, transfer 10 μL/well of 1 μM insulin in PBS to the cells (Final concentration=100 nM), and incubate at 5% CO2 at 37° C. for 10 minutes.
5. […]
The IC50 values measured in the insulin receptor phosphorylation assay for the compound of formula VI are depicted in Table 7: […]

T1 sequence (P06213 28-1382, species assumed): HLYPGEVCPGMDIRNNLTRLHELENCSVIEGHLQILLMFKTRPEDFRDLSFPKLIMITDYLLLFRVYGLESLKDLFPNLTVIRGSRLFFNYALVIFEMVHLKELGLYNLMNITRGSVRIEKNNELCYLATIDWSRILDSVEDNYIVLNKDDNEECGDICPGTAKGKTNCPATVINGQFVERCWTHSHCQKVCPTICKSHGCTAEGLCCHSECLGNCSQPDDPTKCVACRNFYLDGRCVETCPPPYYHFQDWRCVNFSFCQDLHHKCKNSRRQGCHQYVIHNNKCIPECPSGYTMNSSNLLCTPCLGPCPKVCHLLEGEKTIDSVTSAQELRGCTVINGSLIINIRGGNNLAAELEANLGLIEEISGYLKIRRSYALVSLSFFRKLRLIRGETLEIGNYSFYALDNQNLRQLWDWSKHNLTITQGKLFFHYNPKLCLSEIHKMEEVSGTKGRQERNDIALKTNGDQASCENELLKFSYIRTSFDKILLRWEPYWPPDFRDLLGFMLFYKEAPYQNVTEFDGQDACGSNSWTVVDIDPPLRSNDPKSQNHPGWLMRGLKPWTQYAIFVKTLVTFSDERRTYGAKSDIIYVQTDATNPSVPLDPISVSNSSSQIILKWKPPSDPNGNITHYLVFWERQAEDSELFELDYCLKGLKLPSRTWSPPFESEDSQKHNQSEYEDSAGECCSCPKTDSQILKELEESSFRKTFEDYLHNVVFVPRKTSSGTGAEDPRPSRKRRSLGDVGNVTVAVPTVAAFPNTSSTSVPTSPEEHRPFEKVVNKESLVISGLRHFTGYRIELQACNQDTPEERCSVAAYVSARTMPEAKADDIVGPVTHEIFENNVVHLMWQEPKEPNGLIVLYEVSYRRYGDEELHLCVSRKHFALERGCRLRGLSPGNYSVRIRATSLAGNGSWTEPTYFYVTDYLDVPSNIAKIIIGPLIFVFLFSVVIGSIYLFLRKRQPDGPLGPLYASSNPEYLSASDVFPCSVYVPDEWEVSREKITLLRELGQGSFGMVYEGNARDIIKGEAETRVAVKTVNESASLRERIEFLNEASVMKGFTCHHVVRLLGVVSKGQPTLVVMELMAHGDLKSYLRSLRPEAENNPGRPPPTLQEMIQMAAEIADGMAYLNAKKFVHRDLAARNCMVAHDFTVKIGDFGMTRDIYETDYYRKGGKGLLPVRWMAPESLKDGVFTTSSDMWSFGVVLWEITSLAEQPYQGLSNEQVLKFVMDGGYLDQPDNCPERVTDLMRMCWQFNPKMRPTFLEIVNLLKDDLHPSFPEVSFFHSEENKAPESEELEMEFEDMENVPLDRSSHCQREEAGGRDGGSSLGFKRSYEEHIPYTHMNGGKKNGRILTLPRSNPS

IC50: 21.9 µM
Structure (SMILES): Cc1cc(/C=C2/C(=O)Nc3ccccc32)c(C)c2c1[nH]c1ccccc12 [VI]

— patent US6514981B1, “Methods of modulating tyrosine protein kinase function with indolinone compounds” (Sugen, Inc., priority 1998, dated 2003)
